Test results reported in US9958452B2, “Highly fluorogenic protein labelling agents” (UNIVERSITY OF OTTAWA, priority 2015, dated 2018).

Columns and labels:
MBP-dC10α [1] = assay: Fluorescence enhancement of fluorogen after labelling of test protein MBP-dC10α; assay type: biochemical; conditions: for fluorescence enhancement after reaction with MBP-dC10α: 25 μM fluorogen + 25 μM MBP-dC10α, overnight at 37° C., ratio of intensity at emission maximum; for background (latent) fluorescence of the unreacted fluorogen: 25 μM fluorogen without MBP-dC10α, 50 mM HEPES pH 7.4, 5% DMSO
Procedure: 3. Determination of Fluorescence Properties of Fluorogens, Fluorescence Changes after Labelling of Target Protein, Selectivity Over Other Thiols, and Fluorescence Enhancement Ratios.
(§1) Emission spectra and fluorescence intensity measurements were recorded at 37° C. with a Synergy H4 Hybrid Multi-Mode Microplate Reader with excitation and emission monochromators set at 9 nm bandpass. Concentrations of 2.5, 5, 12.5, 20, and 25 μM of MBP-dC10α were reacted with 25 μM YC23. The mixture of 25 μM solution of YC23 and 2.5, 5, 12.5 20, or 25 μM MBP-dC10α in 50 mM HEPES buffer (pH 7.4) with 5% DMSO was incubated at 37° C. in the dark for overnight after which the fluorescence emission spectrum was recorded (λex=480 nm). The emission spectra of YC23 in the same solution without MBP-dC10α were also recorded. The ratio of fluorescence intensity at maximum emission gave the fluorescence enhancement ratio. Selectivity tests were done with same protocol but with different concentrations of thiols. The mixture of 25 μM solution of YC28 or YC29 and 25 μM MBP-dC10α in 50 mM HEPES buffer (pH 7.4) with 5% DMSO was incubated at 37° C. in the dark for overnight after which the fluorescence emission spectrum was recorded. The emission spectra of YC28 or YC29 in the same solution without MBP-dC10α were also recorded. The ratio of fluorescence intensity at maximum emission gave the fluorescence enhancement ratio. λex for YC28 is 540 nm and λex for YC29 is 580 nm. Excitation and emission spectra were obtained for 25 μM of MBP-dC10α labelled with one equivalent of YC23 (FIG. 10), YC28 (FIG. 11a) or YC29 (FIG. 11b).

[2] = Time-dependent fluorescence increase with excess glutathione; assay type: biochemical
MBP-dC10α [3] = assay: Excitation and emission spectra of fluorogen-labelled MBP-dC10α; assay type: physicochemical; conditions: 25 μM MBP-dC10α labelled with one equivalent of fluorogen
Procedure: as §1

MBP-dC10α [4] = assay: Time-dependent fluorescence increase for kinetic studies with MBP-dC10α; assay type: biochemical
Procedure: 4. Time-Dependent Fluorescence Increase for Kinetic Studies.
Protein labelling kinetics were studied by following the time-dependent fluorescence increase at 37° C. using a Synergy H4 Hybrid Multi-Mode Microplate Reader with excitation and emission monochromators set at a 9-nm bandpass. The reaction was prepared in 50 mM HEPES buffer (pH 7.4) with 5% DMSO. Solutions of MBP-dC10α were prepared in a 96-well plate and labelling reagent YC23, YC28 or YC29 in DMSO was added immediately before recording. The final concentrations of YC23, YC28, YC29 and of MBP-dC10α were all 25 μM in 50 mM HEPES buffer (pH 7.4) with 5% DMSO. Samples were excited at 495 nm (YC23), 540 nm (YC28) or 580 nm (YC29) and fluorescence intensity was followed at 525 nm (YC23), 590 nm (YC28) or 630 nm (YC29) as a function of time.

[5] = test system: histone-H2B-dC10α in HEK293T cells; assay: Cellular labelling with confocal fluorescence microscopy; assay type: cell-based, Human; conditions: for fluorescence in cells transfected with histone-H2B-dC10α / fluorescence in negative-control cells (pcDNA / mock DNA): HEK293T, 10 μM fluorogen; for fluorescence in cells transfected with histone-H2B-dC10α: 30 min (YC23) or 45 min (YC29); for fluorescence in negative-control cells (pcDNA / mock DNA): same conditions
Procedure: HEK 293T cells were plated into 60-mm dishes and grown in MEM supplemented with 10% FBS, 100 units/mL of penicillin and 100 μg/mL of streptomycin for 16 h before transfection. Cells were transiently transfected with histone H2B-dC10α or pcDNA3.1 (mock) using lipofectamine 2000 following the manufacturer's instructions. […] Cells were observed and imaged on a Nikon confocal microscope with a 25× objective. Images were taken and analyzed with NIS-Elements software.

[6] = Selectivity over other thiols, overnight incubation; assay type: biochemical; conditions: 25 μM YC23 overnight; 250 μM Cys and Hcy, 1 mM GSH vs 25 μM MBP-dC10α
Procedure: The selectivity of fluorogen YC23 was tested by incubating it overnight in the presence of MBP-dC10α or other intracellular thiols.
as §1, with “Excitation and emission spectra were obtained for 25 μM of MBP-dC10α labelled with one equivalent of YC23 (FIG. 10), YC28 (FIG. 11a) or YC29 (FIG. 11b).” left out

MBP-dC10α [7] = assay: Labelling of MBP-dC10α, purified and in bacterial lysate, analysed by SDS-PAGE after heat denaturation; assay type: biochemical, Escherichia coli
Procedure: 10% SDS-PAGE gels developed by (A) fluorescence (λex=491 nm, λem=508 nm) and (B) Coomassie staining are shown. Lane 1: molecular weight markers. Lanes 2-3: Purified MBP-[…]α, concentrated to 50 μM and (lane 3) labelled with 50 μM YC23, prior to 10-fold dilution and loading. Lanes 4-6: Soluble lysate of bacteria expressing MBP-[…]α, treated with 10, 50, or 100 μM YC23 respectively and 0.5 mM TCEP overnight, prior to loading. The thiol addition reaction of a maleimide group typically results in the formation of robust covalent bonds, which should be stable under conditions in which the labelled protein may itself undergo denaturation. To test this hypothesis, we expressed MBP-[…]α in Escherichia coli and used YC23 to label the test protein in bacterial lysate as well as the purified test protein. These samples were then heated to 95° C. for 15 min, prior to analysis by SDS-PAGE. […] Furthermore, as shown in lanes 4-6, as little as 10 μM of YC23 was sufficient to label the test protein, in the complex biological mixture of cell lysate.

HEK293T cells = assay: MTT assay cytotoxicity; assay type: cell-based, Human; conditions: up to 100 μM, 20 hours
Procedure: 3-(4,5-Dimethylthiazol-2-yl)-2,5-diphenyl tetrazolium bromide (MTT) is a yellow tetrazolium salt and can be reduced to formazan crystals, which are insoluble in aqueous solutions, by active mitochondria in living cells. The resulting intracellular purple formazan can be dissolved in Triton X100, and therefore quantified by measuring absorption of the solution.
Cells were seeded in a 96-well plate and incubated with 100 μL of culture medium with different amounts of the fluorogen YCx for 20 h. No fluorogen was added to the positive control and no cells were plated in the negative control. Portions of 25 μL of MTT solution (5 mg in 1 mL of Hanks' balanced salt solution) were added to the wells and the cells were further incubated at 37° C. for 4 h. Solubilization solutions (100 μL) were then added and incubated in 96-well plates at room temperature in the dark overnight. The absorption of each well was measured using a plate reader at a wavelength of 570 nm with 690 nm as a reference. Cell viability was calculated according to the following equation: Cell viability=(Awith fluorogen−Anegative control)/(Apositive control−Anegative control)×100%

emission maximum of labelled MBP-dC10α (MBP-dC10α [3])	stability and selectivity of the fluorogen ([2]; in presence of GSH vs MBP-dC10α)	excitation maximum of labelled MBP-dC10α (MBP-dC10α [3])	Structure (SMILES)	fluorescence enhancement after reaction with MBP-dC10α (MBP-dC10α [1])	background (latent) fluorescence of the unreacted fluorogen (MBP-dC10α [1])	kinetic selectivity for MBP-dC10α relative to GSH ([2]; 25 μM MBP vs 5 mM GSH)	reaction with MBP-dC10α test protein (time-dependent fluorescence) (MBP-dC10α [4]; 25 μM fluorogen, 25 μM MBP-dC10α)	reaction with GSH (time-dependent fluorescence) ([2]; 5 mM GSH)	localisation of fluorescence in transfected cells ([5]; HEK293T expressing histone H2B-dC10α, 10 μM, 45 min)	fluorescence in cells transfected with histone-H2B-dC10α [5]	fluorescence in negative-control cells (pcDNA / mock DNA) [5]	dependence of fluorescence increase on MBP-dC10α concentration (MBP-dC10α [1]; 25 μM YC23, 2.5-25 μM MBP-dC10α)	fluorescence after incubation with other thiols relative to MBP-dC10α [6]	time required to approach maximum fluorescence (MBP-dC10α [4]; 25 μM fluorogen + 25 μM MBP-dC10α, 37° C.)	fluorescence increase after 15 min (MBP-dC10α [4]; 25 μM fluorogen + 25 μM MBP-dC10α, 37° C., 15 min)	fluorescence of labelled purified test protein under denaturing conditions (MBP-dC10α [7]; 95° C. for 15 min, then SDS-PAGE)	concentration sufficient to label the test protein in cell lysate (MBP-dC10α [7]; soluble bacterial lysate, 0.5 mM TCEP, overnight)	effect on cell viability (HEK293T cells)
592 nm	–	–	COC(=O)CSC1=[N+]2C(=C(c3ccccc3)c3ccc(Nc4cc(N5C(=O)C=C(OC)C5=O)cc(N5C(=O)C=C(OC)C5=O)c4)n3[B-]2(F)F)C=C1 [YC28, 7-((3,5-bis(3-methoxy-2,5-dioxo-2,5-dihydro-1H-pyrrol-1-yl)phenyl)amino)-5,5-difluoro-3-((2-methoxy-2-oxoethyl)thio)-10-phenyl-5H-dipyrrolo[1,2-c:2′,1′-f][1,3,2]diazaborinin-4-ium-5-uide]	579 fold	effectively quenched	acceptable but not excellent	–	–	–	–	–	–	–	–	–	–	–	–
630 nm	excellent stability and selectivity	–	COC1=CC(=O)N(c2cc(Nc3ccc4n3[B-](F)(F)[N+]3=C(N(C)c5ccccc5)C=CC3=C4c3ccccc3)cc(N3C(=O)C=C(OC)C3=O)c2)C1=O [YC29, 7-((3,5-bis(3-methoxy-2,5-dioxo-2,5-dihydro-1H-pyrrol-1-yl)phenyl)amino)-5,5-difluoro-3-(methyl(phenyl)amino)-10-phenyl-5H-dipyrrolo[1,2-c:2′,1′-f][1,3,2]diazaborinin-4-ium-5-uide]	308 fold	efficiently quenched	–	reacted readily	did not show any detectable reaction	localized in the nucleus	Intense red fluorescence	no red fluorescence was detected	–	–	–	–	–	–	–
525 nm	–	510 nm	COC1=CC(=O)N(c2ccc(C3=C4C(C)=CC(C)=[N+]4[B-](F)(F)n4c(C)cc(C)c43)c(N3C(=O)C=C(OC)C3=O)c2)C1=O [YC23, 10-(2,4-Bis(3-methoxy-2,5-dioxo-2,5-dihydro-1H-pyrrol-1-yl)phenyl)-5,5-difluoro-1,3,7,9-tetramethyl-5H-dipyrrolo[1,2-c:2′,1′-f][1,3,2]diazaborinin-4-ium-5-uide]	ca. 800 fold	negligible background fluorescence	–	–	–	–	strongly green fluorescent	negligible fluorescence	concentration-dependent	< 10%	more than 4 hours	10 fold	maintained its fluorescence	≤ 10 µM	negligible effect on cell viability
